Test results reported in PubChem BioAssay (NCI).
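Cultured in 96-well plates, cells were exposed to test compound for 48 hours across five concentrations. GI50 is the concentration that inhibits growth by half. The concentration for full growth arrest is given as TGI.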

What was measured:
Assay in all cases: NCI-60 cell line screen, 48 h
OVCAR-3 ovarian = system: OVCAR-3 ovarian
SK-OV-3 ovarian = system: SK-OV-3 ovarian
SK-MEL-28 melanoma = system: SK-MEL-28 melanoma
U251 CNS = system: U251 CNS
SK-MEL-2 melanoma = system: SK-MEL-2 melanoma
HL-60(TB) leukemia = system: HL-60(TB) leukemia
HCC-2998 colon = system: HCC-2998 colon
K-562 leukemia = system: K-562 leukemia
CAKI-1 renal = system: CAKI-1 renal
SNB-75 CNS = system: SNB-75 CNS

Structure (SMILES) | TGI (OVCAR-3 ovarian) | TGI (SK-OV-3 ovarian) | TGI (SK-MEL-28 melanoma) | TGI (U251 CNS) | TGI (SK-MEL-2 melanoma) | TGI (HL-60(TB) leukemia) | TGI (HCC-2998 colon) | TGI (K-562 leukemia) | TGI (CAKI-1 renal) | TGI (SNB-75 CNS) | GI50 (OVCAR-3 ovarian) | GI50 (SK-OV-3 ovarian) | GI50 (SK-MEL-28 melanoma) | GI50 (U251 CNS) | GI50 (SK-MEL-2 melanoma) | GI50 (HL-60(TB) leukemia) | GI50 (HCC-2998 colon) | GI50 (K-562 leukemia) | GI50 (CAKI-1 renal) | GI50 (SNB-75 CNS)
Cc1ccc2nc(N/N=C/c3cccc(C)n3)cc(C)c2c1 | 30 µM | 30.2 µM | 33.2 µM | 33.4 µM | 34.8 µM | > 100 µM | 27.6 µM | > 100 µM | 31 µM | 36.6 µM | – | – | – | – | – | – | – | – | – | –
Cc1cn2c(=O)n(c1=O)Cc1ccccc1C2 | > 100 µM | > 100 µM | > 100 µM | > 100 µM | > 100 µM | > 100 µM | > 100 µM | > 100 µM | > 100 µM | > 100 µM | > 100 µM | 5.79 µM | > 100 µM | > 100 µM | > 100 µM | > 100 µM | > 100 µM | > 100 µM | > 100 µM | 85.9 µM
Oc1ccc(CN(Cc2ccc(C(F)(F)F)cc2)Cc2ccc(O)c3ncccc23)c2cccnc12 | 60.4 µM | > 48.3 µM | > 100 µM | > 100 µM | 0.0804 µM | – | > 100 µM | > 100 µM | – | > 100 µM | 0.0319 µM | 0.0655 µM | 0.341 µM | < 0.01 µM | 0.0232 µM | 0.0239 µM | 0.0496 µM | 0.0224 µM | 0.0428 µM | 0.0172 µM
COc1cc(-c2n/c(=C\c3c(O)[nH]c4ccccc34)cc3c2=Nc2ccccc2-3)cc(OC)c1OC | 2.6 µM | > 100 µM | > 100 µM | 12.1 µM | 29.6 µM | 5.03 µM | 6.48 µM | > 100 µM | > 100 µM | > 100 µM | 0.506 µM | 4.58 µM | 6.43 µM | 0.333 µM | 1.41 µM | 2.16 µM | 2.32 µM | 0.586 µM | – | 0.381 µM
COc1ccc2c(c1)C(=O)c1c-2n(CCCN2CCOCC2)c(=O)c2cc([N+](=O)[O-])ccc12 | 1.49 µM | 14.5 µM | 16.2 µM | 0.0598 µM | 3.95 µM | 4.03 µM | 0.153 µM | > 37 µM | 0.53 µM | – | < 0.0113 µM | < 0.01 µM | – | < 0.01 µM | 0.0763 µM | < 0.0193 µM | < 0.01 µM | < 0.01 µM | < 0.01 µM | < 0.01 µM
COc1ccc(C(=O)CC(c2ccc(OC)c(OC)c2)c2c(O)c3ccccc3oc2=O)cc1OC (centres undefined) | > 100 µM | > 100 µM | > 100 µM | > 100 µM | > 100 µM | > 100 µM | > 100 µM | > 100 µM | > 100 µM | > 100 µM | – | – | – | – | – | – | – | – | – | –
CC(=O)O[C@H]1CC[C@@]2(C)C(=CC[C@@H]3C2CC[C@]2(C)Nc4[nH]ncc4CC32)C1 (some centres undefined) | 36.5 µM | > 100 µM | > 100 µM | 30.7 µM | 72.7 µM | 53.5 µM | > 100 µM | 52.8 µM | > 100 µM | > 100 µM | – | – | – | – | – | – | – | – | – | –
Cc1cc2nc3c4cccc(O)c4n(CCN(C)C)c3nc2cc1C | 15.7 µM | 14.6 µM | 3.34 µM | 7.72 µM | 4.22 µM | 4.13 µM | 2.99 µM | 4.77 µM | 3.89 µM | 11.1 µM | 3.11 µM | 3.04 µM | 1.78 µM | 2.05 µM | 1.93 µM | 1.57 µM | 1.46 µM | 1.24 µM | 1.35 µM | 1.18 µM
Cc1cc2c(cc1Br)C1(C)CCC(C)C1(C)O2 (centres undefined) | 53.2 µM | > 100 µM | > 100 µM | 50.5 µM | 37.8 µM | 34.1 µM | > 100 µM | 37.6 µM | > 100 µM | > 100 µM | – | – | – | – | – | – | – | – | – | –
CCN1CCC(CC(=O)Nc2n[nH]c3nc(-c4cccs4)c(Br)cc23)CC1 | > 25 µM | > 25 µM | 9.85 µM | 19.4 µM | 11.4 µM | 14.8 µM | > 25 µM | > 19.2 µM | > 25 µM | > 20.4 µM | 10.4 µM | 9.24 µM | 5.31 µM | 6.78 µM | 6.24 µM | 7.31 µM | 12 µM | 7.61 µM | 4.29 µM | 2.34 µM
COC(=O)[C@]12CC=C3O[C@@H]4OC5(CCCCC5)O[C@@H]4[C@H]3C1C(=O)C=CC2=O (some centres undefined) | 28.7 µM | 48.7 µM | 34.2 µM | 36.1 µM | 48.4 µM | 25.9 µM | 31.4 µM | 65 µM | 30.4 µM | 34.7 µM | – | – | – | – | – | – | – | – | – | –
O=[N+]([O-])c1cccc(-c2cc(-c3cc(Br)ccc3O)[nH]n2)c1 | 5.8 µM | 7.15 µM | 10.5 µM | 11.9 µM | 6.53 µM | 3.45 µM | 12.1 µM | 4.57 µM | 5.17 µM | 14.5 µM | 2.1 µM | 2.37 µM | 2.88 µM | 3.24 µM | 1.99 µM | 1.15 µM | 2.96 µM | 1.66 µM | 1.81 µM | 2.68 µM
Cc1ccc(F)cc1NC(=O)c1cc(Cl)ccc1Nc1ccccc1 | > 100 µM | > 100 µM | > 100 µM | > 100 µM | > 100 µM | > 100 µM | > 100 µM | > 100 µM | > 100 µM | > 100 µM | > 100 µM | > 100 µM | > 100 µM | > 100 µM | > 100 µM | > 100 µM | > 100 µM | 67.6 µM | > 100 µM | 22.7 µM
CO/N=C(/COc1c(-c2ccccc2)oc2ccccc2c1=O)c1ccc(F)cc1 | > 100 µM | > 100 µM | > 100 µM | > 100 µM | > 100 µM | > 100 µM | > 100 µM | > 100 µM | > 100 µM | 81.1 µM | 56.7 µM | 62.4 µM | > 100 µM | 33.9 µM | 58.4 µM | > 100 µM | > 100 µM | > 100 µM | > 100 µM | 28 µM
COc1cc(/C=C2\C(=O)Nc3ccccc32)cc(OC)c1OC | > 100 µM | > 100 µM | > 100 µM | 63.5 µM | 82.6 µM | > 100 µM | 32.8 µM | > 100 µM | > 100 µM | 58.7 µM | 25.4 µM | 26.1 µM | 41.8 µM | 10.9 µM | 17.5 µM | 8.15 µM | 12.4 µM | 4.48 µM | 18.9 µM | 15 µM
COc1ccccc1NC(=O)C1=C(C)NC(C)=C(C(=O)Nc2ccccc2OC)C1c1cccc2c1OCO2 | > 100 µM | > 100 µM | > 100 µM | > 100 µM | > 100 µM | > 100 µM | > 100 µM | > 100 µM | > 100 µM | 50.9 µM | – | – | – | – | – | – | – | – | – | –
CNCCOC(=O)/C=C1/CCC2C(C(O)CC3C(C)(C(=O)OC)CCCC23C)C1C (centres undefined) | 0.0276 µM | 0.0394 µM | 0.0758 µM | 0.0341 µM | 0.0805 µM | 0.0638 µM | 0.115 µM | 0.0953 µM | 0.053 µM | 0.0397 µM | < 0.0139 µM | 0.0205 µM | 0.029 µM | 0.0183 µM | 0.0317 µM | 0.0261 µM | 0.0329 µM | 0.0308 µM | 0.0202 µM | 0.0181 µM
NC(=O)c1c2c(cc3c(=O)c4ccccc4[nH]c13)CCCC2 | > 100 µM | > 100 µM | > 100 µM | > 100 µM | > 100 µM | > 100 µM | > 100 µM | > 97.3 µM | > 100 µM | > 75 µM | – | – | – | – | – | – | – | – | – | –
COc1ccc(-n2c(C)nc3c(c(C)nn3-c3ccccc3)c2=O)cc1 | – | > 100 µM | > 100 µM | > 100 µM | > 100 µM | 0.22 µM | > 100 µM | > 68.1 µM | > 50.1 µM | > 100 µM | 0.0414 µM | 1.08 µM | 2.07 µM | 0.0614 µM | 0.516 µM | 0.0353 µM | 0.191 µM | 0.0356 µM | 0.0461 µM | 0.0276 µM
